Assay results from paper PMC9019169, “Direct Regulation of Hyperpolarization-Activated Cyclic-Nucleotide Gated (HCN1) Channels by Cannabinoids” (Frontiers in Molecular Neuroscience, 2022).

What was measured:
mouse HCN1 (mHCN1) [1] = biological target: T1, mouse HCN1 (mHCN1) (Mus musculus, UniProt O88704); assay: two-electrode voltage clamp, Xenopus oocytes, Hill fit of current; assay type: cell-based
T1 construct: full-length wild-type cDNA in pGH19, cRNA expressed in Xenopus laevis oocytes; homotetrameric channel
T1 sequence (O88704 whole entry): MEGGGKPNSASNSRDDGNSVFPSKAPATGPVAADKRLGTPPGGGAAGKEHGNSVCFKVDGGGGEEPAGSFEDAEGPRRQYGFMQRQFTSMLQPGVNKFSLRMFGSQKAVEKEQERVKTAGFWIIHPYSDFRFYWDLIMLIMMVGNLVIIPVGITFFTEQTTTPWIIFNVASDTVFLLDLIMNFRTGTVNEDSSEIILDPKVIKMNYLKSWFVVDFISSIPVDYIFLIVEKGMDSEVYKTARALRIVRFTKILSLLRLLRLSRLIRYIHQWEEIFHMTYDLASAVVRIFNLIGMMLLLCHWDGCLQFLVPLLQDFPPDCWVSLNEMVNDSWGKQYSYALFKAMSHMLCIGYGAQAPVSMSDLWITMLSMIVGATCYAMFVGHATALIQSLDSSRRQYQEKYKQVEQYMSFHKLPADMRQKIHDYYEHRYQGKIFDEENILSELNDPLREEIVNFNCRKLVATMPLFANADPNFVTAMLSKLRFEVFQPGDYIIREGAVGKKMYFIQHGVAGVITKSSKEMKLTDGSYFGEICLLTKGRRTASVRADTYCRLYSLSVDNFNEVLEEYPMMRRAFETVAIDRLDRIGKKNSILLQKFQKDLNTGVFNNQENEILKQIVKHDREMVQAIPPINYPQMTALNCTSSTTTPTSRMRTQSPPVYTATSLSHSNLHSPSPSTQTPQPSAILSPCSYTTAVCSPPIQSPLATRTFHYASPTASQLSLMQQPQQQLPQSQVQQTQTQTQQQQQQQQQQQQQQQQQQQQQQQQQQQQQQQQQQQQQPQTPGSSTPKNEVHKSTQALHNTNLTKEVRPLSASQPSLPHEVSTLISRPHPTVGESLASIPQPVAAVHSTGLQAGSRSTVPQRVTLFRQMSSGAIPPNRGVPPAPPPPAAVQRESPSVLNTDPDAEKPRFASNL

mouse HCN1 (mHCN1) [2] = biological target: T1, mouse HCN1 (mHCN1); assay: as above; assay type: cell-based; conditions: read-out: relative IC50

Structure (SMILES): C=C(C)[C@@H]1CCC(C)=C[C@H]1c1c(O)cc(CCCCC)cc1O [cannabidiol]
- EC50 (mouse HCN1 (mHCN1) [1]): 28.5 µM

Structure (SMILES): CCCCCc1cc(O)c2c(c1)OC(C)(C)[C@@H]1CCC(C)=C[C@@H]21 [Δ9-tetrahydrocannabinol]
- IC50 (mouse HCN1 (mHCN1) [2]): 21.8 µM
